This is an account of results in publication PMC11547827, “Discovery of Cyclic Peptide Inhibitors Targeted on TNFα-TNFR1 from Computational Design and Bioactivity Verification” (Molecules, 2024).

Data set [1] has as its system TNFα-mediated cytotoxicity in L929 cells. The experiment in a line: Neutralization of TNFα induced necrosis in L929 cells. The procedure: L929 cells were seeded at a density of 8000 cells/well in a 96-well plate and incubated for 24 h in RPMI 1640 with 10% FBS at 37 °C. The experiment was divided into a blank group, a control group, a positive control group, and an experimental group. […] Serially diluted α_CC8 was added to cells and incubated at 37 °C, 5% CO2 for 2 h initially, and then 50 μL 10 ng/mL human TNFα was added and incubated overnight (17 h). 1 μg/mL Etanercept was used as a positive control. Subsequently, 100 μL 5% CCK-8 was added per well, followed by incubation of 2 h. The control group consisted of normal cultured cells without TNFα stimulation, while the blank control group contained empty wells without cells. At last, cell viability was confirmed by measuring the absorbance of each well at 450 nm. Cell viability was calculated according to Formula (7). Data was analyzed with SPSSAU (https://spssau.com/, Accessed on 14 August 2023) using the paired t-test to compare the differences between the experimental and control groups.

Data set [2] deals with TNFα. To be noted: cited from earlier work. The source says:
Several potential small molecules of TNFα inhibitors have already been reported.

The test system of data set [3] is TNFα trimer. To be noted: cited from earlier work. The source says:
Several potential small molecules of TNFα inhibitors have already been reported. […] Furthermore, through structure-based virtual screening and biological assay, Xie’s group identified two novel antagonists, T1 and R1 (Figure S1A), which could bind to TNFα or TNFR1, with low-micromolar binding affinities to TNFα and TNFR1, respectively ...

Data set [4] addresses T1, hTNFR1 (Homo sapiens, UniProt P19438).
T1 sequence (P19438 30-455): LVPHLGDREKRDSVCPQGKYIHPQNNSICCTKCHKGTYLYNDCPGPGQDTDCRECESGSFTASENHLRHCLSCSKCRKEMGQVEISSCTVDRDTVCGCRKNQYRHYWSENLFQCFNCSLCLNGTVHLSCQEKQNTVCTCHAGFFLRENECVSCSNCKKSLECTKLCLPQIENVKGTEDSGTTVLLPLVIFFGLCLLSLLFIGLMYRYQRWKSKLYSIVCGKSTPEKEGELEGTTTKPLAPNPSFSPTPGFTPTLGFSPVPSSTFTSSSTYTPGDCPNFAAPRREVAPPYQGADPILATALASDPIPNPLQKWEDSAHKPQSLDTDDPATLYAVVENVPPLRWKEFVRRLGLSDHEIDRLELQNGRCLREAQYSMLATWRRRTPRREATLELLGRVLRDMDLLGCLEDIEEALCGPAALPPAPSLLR
In words: ELISA binding affinity to hTNFR1. How it is done:
The hTNFR1 (100 ng) was coated on a 96-well ELISA plate (BIOFIL, Guangzhou, China) overnight at 4 °C, followed by blocking the plate with 200 μL of 3% skim milk solution in PBST (PBS, 0.05% Tween20) for 2 h at 37 °C. […] After incubating with the cyclic peptides for 2 h at room temperature, […] mAB (Solarbio, Beijing, China) was diluted at 1:500, and was incubated for an additional 2 h at room temperature. Five washes with PBST were carried out between each incubation to remove nonspecific absorbance. After the final wash, the samples were incubated in the dark with freshly prepared TMB Chromogen Solution (Sangon Biotech, Shanghai, China) for 10 min at room temperature to develop the signals. After adding the stop solution (1 M H2SO4), the plates were read at 450 nm on a plate reader. The raw data were processed to calculate the Kd value.

For data set [5], the system named is L929 cells. The conditions noted are these: α_CC8, 200 μM, 24 h, CCK-8, 450 nm, n = 3. How it is done: L929 cells were seeded in a 96-well plate at a density of 8000 cells per well and cultured for 24 h under standard conditions. Then, the liquid in the wells was discarded, and 100 µL of medium containing different concentrations of cyclic peptides was added. After incubation for 24 h, the liquid in the well was discarded, and the medium was replaced with CCK-8 working solution (100 μL RPMI 1640 medium containing 5% CCK-8) and incubated in the dark for 2 h. The absorbance of each well at 450 nm was detected with a microplate reader. The same operation was performed with wells not seeded with cells as a blank group to eliminate systematic errors. Cell viability was calculated according to the following formula:(7) Cell viability(%)=(ODtest−ODblank)/(ODcontrol−ODblank)×100%

Entries after “also recorded” stand apart in the source; their conditions may differ. Where a SMILES comes first, the peptide text is derived from it. Bridges are numbered along the chain shown (N, C = ends).

For the compound Etanercept, the “blocking effect compared with the cyclic peptides (in words)” value in data set [1] (Etanercept 1 μg/mL, positive control, L929 cells) is “stronger blocking effect on the formation of TNFα/TNFR1”. The “TNFα binding (in words)” value in data set [2] (background statement, no reference given) is “strong ability to bind TNFα”.
The term Kd denotes the equilibrium constant for the complex coming apart. In the case of `Cc1cc2occ(CN(C)CCN(C)Cc3cn(-c4cccc(C(F)(F)F)c4)c4ccccc34)c(=O)c2cc1C` [SPD-304, reference compound], the Kd in data set [2] (TNFα small molecule antagonist) is 5.36 µM. In addition, in data set [3], the “effect on TNFα trimer (in words)” value is “greatly increase the dissociation rate of the TNFα trimer”.
Take TNFα: the “survival rate of L929 cells after TNFα” value in data set [1] (TNFα alone, 10 ng/mL, 17 h, average) stood at 42%.
`CC[C@H](C)[C@@H]1NC(=O)[C@H](CCCNC(=N)N)NC(=O)[C@H](CO)NC(=O)[C@H]([C@@H](C)CC)NC(=O)[C@H]([C@@H](C)O)NC(=O)[C@@H](N)CSSC[C@@H](C(=O)O)NC(=O)[C@H](CO)NC(=O)[C@H](CC(C)C)NC(=O)[C@H](CCCNC(=N)N)NC(=O)[C@H](CC(N)=O)NC(=O)[C@H](C(C)C)NC(=O)[C@H](CCCCN)NC(=O)[C@H]([C@@H](C)O)NC(=O)[C@H](CCC(N)=O)NC(=O)[C@H](Cc2ccc(O)cc2)NC(=O)[C@H](CO)NC(=O)[C@H](C(C)C)NC(=O)[C@H](CCCCN)NC1=O` [L16R] (H-CTISRIKVSYQTKVNRLSC-OH; disulfide 1-19; N-terminus and C-terminus assumed): the “binding to hTNFR1 (in words)” value in data set [4] is listed as “good binding condition with hTNFR1”.
Regarding `CC[C@H](C)[C@@H]1NC(=O)[C@H](CCCNC(=N)N)NC(=O)[C@H](CO)NC(=O)[C@H]([C@@H](C)CC)NC(=O)[C@H]([C@@H](C)O)NC(=O)[C@@H](N)CSSC[C@@H](C(=O)O)NC(=O)[C@H](CO)NC(=O)[C@H](CC(C)C)NC(=O)[C@H](CC(C)C)NC(=O)[C@H](CC(N)=O)NC(=O)[C@H](C(C)C)NC(=O)[C@H](CCCCN)NC(=O)[C@H]([C@@H](C)O)NC(=O)[C@H](CCC(N)=O)NC(=O)[C@H](Cc2ccc(O)cc2)NC(=O)[C@H](CO)NC(=O)[C@H](C(C)C)NC(=O)[C@H](C)NC1=O` [α_CC8] (H-CTISRIAVSYQTKVNLLSC-OH; disulfide 1-19; N-terminus and C-terminus assumed), the “survival rate of L929 cells” value in data set [5] was no more than 90%. The “inhibition of TNFα-mediated cytotoxicity (in words)” value in data set [1] (L929 cells) is “effectively inhibit the TNFα-mediated cytotoxicity; also recorded: better bioactivity and lower effective concentration than R1_CC4; also recorded: improve cell viability significantly by inhibiting TNFα-mediated necrosis; also recorded: higher biological activity and effective concentration than R1_CC4”. Also, the “concentration at which survival rate increased significantly” value in data set [1] (L929 cells, human TNFα 10 ng/mL, 17 h, CCK-8, n = 3) amounted to 60 µM. Besides, the “increase of cell survival rate” value in data set [1] (α_CC8 60 μM, 2 h with cells, then human TNFα 17 h, n = 3) is listed as 17.8%.
